According to patent US20150158870A1, “POLYMORPHS OF 7-(TERT-BUTYL-D9)-3-(2,5-DIFLUOROPHENYL)-6-((1-METHYL-1H-1,2,4-TRIAZOL-5-YL)METHOXY)-[1,2,4]TRIAZOLO[4,3-B]PYRIDAZINE” (Concert Pharmaceuticals Inc., priority 2012, published 2015):

Legend:
Format in all cases: physicochemical
[1] = Dynamic Vapor Sorption (DVS) analysis; conditions: for weight gained in DVS analysis: between 0-90% relative humidity, 25° C.
Method: Dynamic Vapor Sorption (DVS). DVS experiments were conducted on a Surface Measurement Systems DVS-HT at 25° C. The instrument was operated in step mode and the relative humidity was increased in 10% RH increments from 40% RH to 90% RH, then decreased from 90% RH to 0% RH, then increased from 0% RH to 90% RH, then decreased from 90% RH to 0% RH. An extra step at 75% RH was included in each cycle. The mass equilibrium criterion was set at 0.005% change in mass over time (dm/dt) prior to each humidity level. A minimum step time of 10 minutes and a maximum step time of 240 minutes were specified.

[2] = Physical (crystal form) stability on exposure to ambient conditions, relative humidity or elevated pressure; conditions: for crystal form change on exposure to 75% relative humidity: 75% relative humidity for five days; for crystal form change on exposure to 97% relative humidity: 97% relative humidity for 5 days
Description: (§1) Form 1 is a non-solvated, non-hygroscopic crystal.
Form 3 is a non-solvated and non-hygroscopic crystal.
Form 4 is a non-solvated crystal.

[3] = Milling at -196° C. and recrystallization
Description: as §1

[4] = Stability of Form 1 to physical and chemical manipulation (Example 3)
Method: Form 1 is stable to lyophilization when initially dissolved in a 50:50 mixture of DMC:ACN.
A saturated solution of Form 1 in any of MeOH, ACN, acetone, DCM, TFE, or 1,4-dioxane is stable to evaporation over 3.5 hours at 30° C. under reduced pressure.
A saturated solution of Form 1 in any of MeOH, THF, MeOAc, Toluene, or EtOH in 1 vol % Heptane is stable after heating to 50° C., filtering the solution and rapidly cooling to 5° C.
A suspension of Form 1 in any of DMSO, n-BuOH, 2-Methoxyethanol, IPA, EtOH, Nitromethane, DMC, n-PrOH, ACN, Acetone, 2-Butanone, EtOAc, THF, EtOH in 5 vol % Toluene, MeOAc, or EtOH in 5 vol % MeOH is stable after cycling temperature between 5 and 40° C. for >48 hrs with constant stirring.
Form 1 was also stable to exposure to 75% relative humidity or to high pressure (10 kPSi).
A saturated solution of Form 1 in any of n-PrOH, ACN, Acetone, 2-Butanone, EtOAc, THF, EtOH in 5 vol % Toluene, MeOAc, or EtOH in 5 vol % MeOH at 25° C., is stable after filtering the solution and then cooling the solution to 5° C. at a rate of 1° C./min.
A saturated solution of Form 1 in any of TFE, 2-Methoxyethanol, IPA, EtOH, Heptane, 4-Methyl-2-pentanone, cyclohexane, ACN, Acetone, 2-Butanone, EtOAc, THF, or EtOH in 5 vol % Toluene is stable to evaporation over 2-28 days under ambient conditions.

| hygroscopicity of the crystal [1] | weight gained in DVS analysis [1] [% wt] | crystal form change on exposure to 75% relative humidity [2] | crystal form change on exposure to 97% relative humidity [2] | physical stability at ambient conditions ([2]; ambient conditions, no duration stated) | crystal form change on exposure to elevated pressures ([2]; elevated pressures (~0.35 GPa) for 3 days) | time to recrystallize back to Form 1 after milling ([3]; after becoming amorphous by milling at -196° C. for 2.5 hours) [min] | solid form after milling ([3]; milled at -196° C. for 2.5 hours) | crystal form stability to exposure to water vapor ([4]; 75% relative humidity) | crystal form stability to pressing ([4]; high pressure (10 kPSi)) | crystal form stability to lyophilization ([4]; initially dissolved in a 50:50 mixture of DMC:ACN) | crystal form stability to controlled cooling ([4]; saturated solution at 25° C. in any of n-PrOH, ACN, Acetone, 2-Butanone, EtOAc, THF, EtOH in 5 vol % Toluene, MeOAc, EtOH in 5 vol % MeOH, filtered, cooled to 5° C. at 1° C./min) | crystal form stability to fast evaporation ([4]; saturated solution in any of MeOH, ACN, acetone, DCM, TFE or 1,4-dioxane, evaporation over 3.5 hours at 30° C. under reduced pressure) | crystal form stability to rapid cooling ([4]; saturated solution in any of MeOH, THF, MeOAc, Toluene or EtOH in 1 vol % Heptane, heated to 50° C., filtered, rapidly cooled to 5° C.) | crystal form stability to slow evaporation ([4]; saturated solution in any of TFE, 2-Methoxyethanol, IPA, EtOH, Heptane, 4-Methyl-2-pentanone, cyclohexane, ACN, Acetone, 2-Butanone, EtOAc, THF, EtOH in 5 vol % Toluene, evaporation over 2-28 days under ambient conditions) | crystal form stability to slurry equilibration ([4]; suspension in any of DMSO, n-BuOH, 2-Methoxyethanol, IPA, EtOH, Nitromethane, DMC, n-PrOH, ACN, Acetone, 2-Butanone, EtOAc, THF, EtOH in 5 vol % Toluene, MeOAc, EtOH in 5 vol % MeOH, cycling 5-40° C. for >48 hrs with stirring) | time physically stable at ambient conditions ([2]; ambient conditions) | Compound |
| --- | --- | --- | --- | --- | --- | --- | --- | --- | --- | --- | --- | --- | --- | --- | --- | --- | --- |
| non-hygroscopic | < 0.25 | does not undergo a crystal form change | partially converts to Form 2 | physically stable | does not undergo a crystal form change | ≤ 30 | becomes amorphous | stable | stable | stable | stable | stable | stable | stable | stable | – | [2H]C([2H])([2H])C(c1cc2nnc(-c3cc(F)ccc3F)n2nc1OCc1ncnn1C)(C([2H])([2H])[2H])C([2H])([2H])[2H] [Form 1, 7-(tert-Butyl-d9)-3-(2,5-difluorophenyl)-6-((1-methyl-1H-1,2,4-triazol-5-yl)methoxy)-[1,2,4]triazolo[4,3-b]pyridazine] |
| non-hygroscopic | < 0.25 | – | does not undergo a crystal form change | – | – | – | – | – | – | – | – | – | – | – | – | at least 2 weeks | [2H]C([2H])([2H])C(c1cc2nnc(-c3cc(F)ccc3F)n2nc1OCc1ncnn1C)(C([2H])([2H])[2H])C([2H])([2H])[2H] [Form 3, 7-(tert-Butyl-d9)-3-(2,5-difluorophenyl)-6-((1-methyl-1H-1,2,4-triazol-5-yl)methoxy)-[1,2,4]triazolo[4,3-b]pyridazine] |
| – | – | does not undergo a crystal form change | – | – | – | – | – | – | – | – | – | – | – | – | – | at least 2 weeks | [2H]C([2H])([2H])C(c1cc2nnc(-c3cc(F)ccc3F)n2nc1OCc1ncnn1C)(C([2H])([2H])[2H])C([2H])([2H])[2H] [Form 4, 7-(tert-Butyl-d9)-3-(2,5-difluorophenyl)-6-((1-methyl-1H-1,2,4-triazol-5-yl)methoxy)-[1,2,4]triazolo[4,3-b]pyridazine] |
